Test results: article PMC5867665, “Targeting Multiple Effector Pathways in Pancreatic Ductal Adenocarcinoma with a G-Quadruplex-Binding Small Molecule” (Journal of Medicinal Chemistry, 2018)

How the values were obtained:
[1] = tested on: breast adenocarcinoma (MCF7); experiment: 96 h SRB growth inhibition assay, MCF7; type: cell-based; settings: Homo sapiens
Description: (§1) Compounds were screened with a 96 h SRB (sulforhodamine B) assay for their antiproliferative activity in a panel of human cancer cell lines comprising lung adenocarcinoma (A549), breast adenocarcinoma (MCF7), and PDAC (MIA PaCa-2 and PANC-1) cell lines, as well as a fetal lung fibroblast-like nononcogenic control cell line (WI-38) (Figure 1f). […] Gemcitabine is also active in these lines at low nanomolar levels, although less so in MIA PaCa-2 (IC50 19 ± 5 nM) and more so in BX-PC3 cells (6 ± 2 nM).
(§2) All cell lines were purchased from ATCC and maintained in appropriate medium supplemented with 10% fetal bovine serum (Invitrogen, UK), 2 mM L-glutamine (Invitrogen, Netherlands), and other components as specified by the suppliers. Cell lines were maintained at 37 °C, 5% CO2, and routinely passaged. Drugs were dissolved in H2O and filtered through 0.22 μm pore-size filter units (stock 10 mM) before addition to appropriate cell line media. Cellular growth inhibition was measured using the sulforhodamine B (SRB) assay in 96-well plates as described previously.[78] The 50% inhibitory concentrations (IC50) were determined by taking the mean absorbance at 540 nm for each drug concentration expressed as a percentage of the absorbance of untreated control wells.

PDAC PANC-1 cells = experiment: 96 h SRB growth inhibition assay, PANC-1; type: cell-based; settings: Homo sapiens
Description: as §1, §2

[2] = tested on: fetal lung fibroblast-like nononcogenic control cell line (WI-38); experiment: 96 h SRB growth inhibition assay, WI-38; type: cell-based, human; settings: Homo sapiens, WI-38; SMILES csv supplement; read-out: WI-30 IC50
Description: as §1, §2

[3] = tested on: MIA PaCa-2 pancreatic tumor xenograft; experiment: Subcutaneous MIA PaCa-2 pancreatic tumor xenograft therapy study; type: in vivo; settings: 15 mg/kg IV twice weekly for 28 days
Description: To determine if the in vitro activity of CM03 was paralleled in vivo, we explored the activity of CM03 in a mouse xenograft model of PDAC. We have previously reported that the maximum tolerated dosage (MTD) for intravenous (IV) administration of MM41 is 25 mg/kg.[33] CM03 was well tolerated, up to a dosage of 45–50 mg/kg, as judged by a dose-escalation MTD study. A therapeutic schedule of two CM03 intravenous (IV) doses was explored using a subcutaneous MIA PaCa-2 pancreatic tumor xenograft model derived from the human cell line used in the cell growth inhibition studies. A group size of eight CD-1 nude mice was used, and dosing was conducted at 10 and 15 mg/kg, each twice weekly, over a period of 4 weeks (28 days: 8 doses). Two further groups were given either MM41 or gemcitabine at 15 mg/kg and received the same dose regimen. […] IVIS imaging of treated mice was performed by taking account of the intrinsic fluorescence of CM03. […] Thus, in contrast to MM41 and gemcitabine, the higher-dose CM03 treatment results in a statistically significant (p < 0.001) antitumor effect, which persisted long after dosing had ceased, up to the termination of the xenograft experiment (62 days).
For therapy studies, female CD-1 nude mice (2–3 months old, weighing 20–25 g) were injected subcutaneously with 5 × 10^6 MIA PaCa-2 cells in the right flank (unsupplemented RPMI + Matrigel). When the tumors were established (approximately 13 days, mean size 0.05 cm^3), the mice were divided into five treatment groups with eight mice/group. The MM41 and CM03 samples were dissolved directly in saline to the required concentrations and administered IV. Tumor size was measured weekly by calliper using the π-based ellipsoid volume formula (length × width × height × π/6) every 3–4 days, and the mice were also weighed and examined at the same time to determine any signs of toxicity from the drug.
• Group 1:15 mg/kg of gemcitabine (Sigma), twice weekly dose. • Group 2:15 mg/kg of MM41, twice weekly dose. • Group 3:10 mg/kg of CM03, twice weekly dose. • Group 4:15 mg/kg of CM03, twice weekly dose. • Group 5: saline only, twice weekly dose.
The xenograft data was analyzed using Student’s t test (GraphPad Inc.). Responses were considered to be significant for those with probabilities (p) less than 5% (p < 0.05). Mice were culled if there was any sign of tumor ulceration, if tumor volume exceeded 1.5 cm^3, or if a weight loss over 20% of initial body weight was observed. Samples of liver, kidney, and spleen from each animal in the CM03 (15 mg/kg) and untreated control groups were excised at the end of the therapy experiment, then fixed in 10% neutral buffered formalin for at least 48 h prior to processing and paraffin embedding. Tissue slices were stained with hematoxylin and eosin and assessed visually for any obvious differences compared with controls, indicative of toxicity and tissue damage. For the imaging study mice were anesthetized using isoflurane and imaged using the IVIS preclinical imaging system from PerkinElmer. Images were captured after 4 h following intravenous administration of CM03 using Cy5.5 excitation for 5 s.

hERG = hERG (Homo sapiens, UniProt Q12809); experiment: hERG liability (unpublished data)
[4] = Aqueous solubility and pH of the salt; type: physicochemical; settings: formate salt
Source text: The synthetic approach to the trisubstituted series adapts previously published procedures to simplify purification and increase yields of both intermediates and final compounds (Scheme 1). 5,5-Dimethyl-1,3-dibromohydantoin was used for the regioselective bromination of the starting material, enabling more efficient and convenient purification. The separation of final products was achieved using column chromatography, giving a 26% overall yield for CM03.
CM03 was then converted to a mixed hydrochloride/formate salt in order to enhance its aqueous solubility. At a concentration of 5 mg/mL, the pH of the CM03 salt solution was 6.95.

[5] = tested on: MIA PaCa-2 pancreatic tumor xenograft; design: method as in PMID 26077929; settings: cited from earlier work

Sequence of hERG (Q12809 whole entry): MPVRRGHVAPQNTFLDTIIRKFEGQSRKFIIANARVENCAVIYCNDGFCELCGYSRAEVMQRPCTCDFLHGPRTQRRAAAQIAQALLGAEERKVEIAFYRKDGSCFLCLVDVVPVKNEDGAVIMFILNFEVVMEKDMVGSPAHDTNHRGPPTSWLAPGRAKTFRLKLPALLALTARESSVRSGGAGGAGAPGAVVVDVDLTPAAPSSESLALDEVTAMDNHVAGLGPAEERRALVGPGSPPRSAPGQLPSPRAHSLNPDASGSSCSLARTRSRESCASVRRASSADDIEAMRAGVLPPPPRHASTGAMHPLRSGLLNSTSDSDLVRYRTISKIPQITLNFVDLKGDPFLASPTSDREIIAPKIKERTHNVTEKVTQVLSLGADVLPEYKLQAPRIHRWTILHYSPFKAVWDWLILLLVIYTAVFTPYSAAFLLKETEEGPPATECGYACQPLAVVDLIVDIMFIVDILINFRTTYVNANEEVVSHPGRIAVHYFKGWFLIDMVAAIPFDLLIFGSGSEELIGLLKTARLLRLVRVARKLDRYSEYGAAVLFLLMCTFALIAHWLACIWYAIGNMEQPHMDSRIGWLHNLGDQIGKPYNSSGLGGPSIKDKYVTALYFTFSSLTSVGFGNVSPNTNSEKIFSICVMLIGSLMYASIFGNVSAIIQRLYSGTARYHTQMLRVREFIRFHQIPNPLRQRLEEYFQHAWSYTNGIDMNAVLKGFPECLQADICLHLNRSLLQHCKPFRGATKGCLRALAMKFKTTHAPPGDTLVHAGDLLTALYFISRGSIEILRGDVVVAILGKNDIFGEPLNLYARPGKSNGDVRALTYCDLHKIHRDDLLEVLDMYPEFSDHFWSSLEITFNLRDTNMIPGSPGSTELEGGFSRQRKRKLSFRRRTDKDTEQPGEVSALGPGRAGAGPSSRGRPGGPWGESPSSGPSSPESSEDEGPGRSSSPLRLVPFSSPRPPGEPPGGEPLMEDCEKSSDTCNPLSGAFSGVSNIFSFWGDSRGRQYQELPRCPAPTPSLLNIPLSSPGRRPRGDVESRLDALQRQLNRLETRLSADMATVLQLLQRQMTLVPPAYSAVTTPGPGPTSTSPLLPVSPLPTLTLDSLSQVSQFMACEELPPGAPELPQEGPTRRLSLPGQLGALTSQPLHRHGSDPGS

Compound `CN1CCN(CCCNc2cc3c4c(c(NCCCN5CCN(C)CC5)cc5c4c2C(=O)N(CCCN2CCOCC2)C5=O)C(=O)N(CCCN2CCOCC2)C3=O)CC1` [MM41, 4,9-bis((3-(4-methylpiperazin-1-yl)propyl)amino)-2,7-bis(3-morpholinopropyl)benzo[lmn][3,8]phenanthroline-1,3,6,8(2H,7H)-tetraone, reference compound] has an IC50 [1] of 70 ± 10 nM, an IC50 (PDAC PANC-1 cells) of 3 ± 1 nM and an IC50 [2] of 230 ± 50 nM. The “MTV ± SEM (Day 29)” value [3] was 0.05 ± 0.02 cm^3, the “MTV ± SEM (Day 62)” value [3] was 0.26 ± 0.14 cm^3 and the hERG liabilities (hERG) was “neither MM41 nor CM03 show significant hERG liabilities”. For the same compound, the water solubility [4] was “freely water-soluble” and the “reduction of tumor volume in a PDAC xenograft model” value [5] was ~80%.
